Data on 13 compounds can be found in ChEMBL document CHEMBL1134171, “Synthesis and biological activity of novel potent endothelin-converting enzyme-1 inhibitors” (Bioorg Med Chem Lett, 2001).

Experiment [1] addresses T1, Endothelin-converting enzyme 1 (Homo sapiens) (UniProt P42892).
T1 sequence (whole entry): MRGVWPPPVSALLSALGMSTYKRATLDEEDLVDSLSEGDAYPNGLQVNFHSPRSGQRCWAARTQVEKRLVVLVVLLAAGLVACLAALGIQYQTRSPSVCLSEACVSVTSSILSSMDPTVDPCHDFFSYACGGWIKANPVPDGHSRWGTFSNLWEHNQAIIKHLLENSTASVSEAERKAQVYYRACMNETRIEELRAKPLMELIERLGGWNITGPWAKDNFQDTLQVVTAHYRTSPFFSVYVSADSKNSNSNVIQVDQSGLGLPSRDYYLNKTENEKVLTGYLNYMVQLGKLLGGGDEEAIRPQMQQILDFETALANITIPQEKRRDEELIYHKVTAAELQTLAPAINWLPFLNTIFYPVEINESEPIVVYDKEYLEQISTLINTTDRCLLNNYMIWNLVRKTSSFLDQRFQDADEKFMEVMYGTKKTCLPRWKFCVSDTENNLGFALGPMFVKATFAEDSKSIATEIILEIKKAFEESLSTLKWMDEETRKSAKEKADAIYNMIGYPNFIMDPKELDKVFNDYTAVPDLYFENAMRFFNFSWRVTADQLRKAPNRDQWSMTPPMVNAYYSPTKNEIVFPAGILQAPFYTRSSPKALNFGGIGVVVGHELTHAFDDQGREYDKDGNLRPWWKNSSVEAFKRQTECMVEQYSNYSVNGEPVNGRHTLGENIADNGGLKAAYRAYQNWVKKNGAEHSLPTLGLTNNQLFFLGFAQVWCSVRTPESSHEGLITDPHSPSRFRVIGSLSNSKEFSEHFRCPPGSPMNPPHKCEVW
The experiment in a line: In vitro inhibitory activity was tested against Endothelin converting enzyme 1 at a concentration of 1 uM.

For experiment [2], the target named is T2, Endothelin-converting enzyme 1 (Homo sapiens, UniProt P42892).
T2 sequence (P42892 whole entry): T1 sequence (whole entry)
The experiment can be described thus: In vitro inhibitory activity was tested against Endothelin converting enzyme 1.

For orientation: inhibition means the share of the control response that was lost under treatment. High values mean a response far below the control, low ones a response near the control. Compound `COc1ccc(-c2ccc(C[C@H](NC(=O)C3(NC(=O)[C@@H](S)C(C)C)CCCC3)C(=O)O)cc2)cc1` returned an inhibition in experiment [1] of 49%.
For orientation: IC50 means the concentration at which inhibition is half-maximal. Take `COc1cccc(-c2ccc(CC(NC(=O)C3(NC(=O)[C@@H](S)C(C)C)CCCC3)C(=O)O)cc2)c1OC` (stereo partly drawn): in experiment [2], the IC50 worked out at 350 nM.
`CC(C)[C@H](S)C(=O)NC1(C(=O)N[C@@H](Cc2ccccc2)C(=O)O)CCCC1`: the inhibition in experiment [1] turned out to be 26%.
The same measure, in the same setting: in the case of `CC(C)[C@H](S)C(=O)NC1(C(=O)NC(Cc2ccc(-c3ccncc3)cc2)C(=O)O)CCCC1` (stereo partly drawn) it was 22%.
On the same count and under the same terms, for `CC(C)[C@H](S)C(=O)NC1(C(=O)N[C@@H](Cc2ccc(-c3ccccc3)cc2)C(=O)O)CCCC1` the value was 77%.
The same measure, in the same setting: for `CC(C)[C@H](S)C(=O)NC1(C(=O)N[C@@H](Cc2ccc(-c3ccc(C(F)(F)F)cc3)cc2)C(=O)O)CCCC1` the value was 54%.
As for `CC(C)[C@H](S)C(=O)NC1(C(=O)N[C@@H](Cc2ccccc2-c2ccccc2)C(=O)O)CCCC1`, in experiment [1], the inhibition came out at 0%.
In experiment [2], `COc1cc(OC)cc(-c2ccc(CC(NC(=O)C3(NC(=O)[C@@H](S)C(C)C)CCCC3)C(=O)O)cc2)c1` (stereo partly drawn) had an IC50 of 990 nM.
Same read-out and setting: in the case of `CC(C)[C@H](S)C(=O)NC1(C(=O)NC(Cc2ccc(-c3ccccn3)cc2)C(=O)O)CCCC1` (stereo partly drawn) it was 220 nM.
Regarding `CC(C)[C@H](S)C(=O)NC1(C(=O)N[C@H](Cc2ccc(-c3ccccc3)cc2)C(=O)O)CCCC1`, the inhibition in experiment [1] is 18%.
For the compound `CC(C)[C@H](S)C(=O)NC1(C(=O)NC(Cc2ccc(-c3cccnc3)cc2)C(=O)O)CCCC1` (stereo partly drawn), half-maximal inhibition in experiment [2] (IC50) required 150 nM.
The same measure, in the same setting: for `CC(C)[C@H](S)C(=O)NC1(C(=O)NC(Cc2ccc(-c3cncnc3)cc2)C(=O)O)CCCC1` (stereo partly drawn) the value was 120 nM.
`CC(C)[C@H](S)C(=O)NC1(C(=O)N[C@@H](Cc2cccc(-c3ccccc3)c2)C(=O)O)CCCC1` yielded an inhibition in experiment [1] of 39%.
